Here are results for nine molecules from publication PMC10698726 (Molecular Pharmaceutics, 2023).

Where two headings read alike, the source gives them in different places.

For data set [1], the target named is T1, OCT2 (Homo sapiens, UniProt O15244).
T1 sequence (O15244 1-555): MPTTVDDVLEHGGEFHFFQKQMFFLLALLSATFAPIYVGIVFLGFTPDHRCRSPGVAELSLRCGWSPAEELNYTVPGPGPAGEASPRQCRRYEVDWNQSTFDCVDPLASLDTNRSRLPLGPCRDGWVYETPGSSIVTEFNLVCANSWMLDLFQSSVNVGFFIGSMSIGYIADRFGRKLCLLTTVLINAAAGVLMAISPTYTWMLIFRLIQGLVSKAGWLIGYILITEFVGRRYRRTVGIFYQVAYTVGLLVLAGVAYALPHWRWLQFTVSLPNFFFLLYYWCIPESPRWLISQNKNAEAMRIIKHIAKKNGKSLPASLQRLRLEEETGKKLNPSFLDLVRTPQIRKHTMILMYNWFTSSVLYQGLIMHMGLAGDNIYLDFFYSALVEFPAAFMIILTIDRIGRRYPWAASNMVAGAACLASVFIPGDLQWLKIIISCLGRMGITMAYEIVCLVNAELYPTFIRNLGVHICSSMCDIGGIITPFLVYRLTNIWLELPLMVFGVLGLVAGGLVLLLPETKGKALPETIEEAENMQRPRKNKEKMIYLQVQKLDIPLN
Kind of data set: Inhibition of model substrate uptake in OCT2-overexpressing HEK293 cells. Conditions: for ASP+ inhibition [%] / N-Ethyllidocaine inhibition [%] / inhibition at 5 min, 20 μM: 20 μM inhibitor.

The target in data set [2] is T2, OCT3 (Homo sapiens, UniProt O75751).
T2 construct: expressed in transfected cells; host or cells: HEK293
T2 sequence (O75751 1-556): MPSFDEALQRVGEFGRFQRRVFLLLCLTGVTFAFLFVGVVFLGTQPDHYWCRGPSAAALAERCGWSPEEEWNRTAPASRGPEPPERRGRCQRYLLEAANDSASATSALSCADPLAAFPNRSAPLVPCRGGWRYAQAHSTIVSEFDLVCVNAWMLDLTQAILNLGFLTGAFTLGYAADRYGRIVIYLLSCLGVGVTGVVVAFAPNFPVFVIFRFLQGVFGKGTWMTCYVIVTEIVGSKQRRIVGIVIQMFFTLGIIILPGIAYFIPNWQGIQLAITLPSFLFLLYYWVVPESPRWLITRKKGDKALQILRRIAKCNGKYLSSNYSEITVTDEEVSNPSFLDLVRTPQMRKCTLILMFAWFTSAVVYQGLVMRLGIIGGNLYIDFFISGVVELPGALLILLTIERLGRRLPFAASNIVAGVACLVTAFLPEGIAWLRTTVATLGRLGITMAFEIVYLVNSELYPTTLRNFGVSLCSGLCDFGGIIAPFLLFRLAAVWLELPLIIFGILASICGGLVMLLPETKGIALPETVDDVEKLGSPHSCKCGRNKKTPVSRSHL
As to the kind of experiment: Inhibition of model substrate uptake in OCT3-overexpressing HEK293 cells. It counts as cell-based. Conditions: for stereoselective inhibition of OCT3 (in words): ethambutol and zolmitriptan as substrates; for IC50: OCT3, Table S5, 2 μM ASP+ or ethambutol as model substrate, read-out: IC50. Put shortly: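 IC50 values were fitted with a Hill equation from net uptake, calculated as uptake in overexpressing HEK293 cells minus empty-vector control uptake. Cells were exposed for 5 min to 2 μM model substrate alone, with 20 μM inhibitor, or with a concentration series. Uptake was quantified by ASP^+ fluorescence or LC–MS/MS after lysis in 80% acetonitrile.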

Data set [3] addresses T3, OCT1 (Homo sapiens, UniProt O15245).
T3 sequence (O15245 1-554): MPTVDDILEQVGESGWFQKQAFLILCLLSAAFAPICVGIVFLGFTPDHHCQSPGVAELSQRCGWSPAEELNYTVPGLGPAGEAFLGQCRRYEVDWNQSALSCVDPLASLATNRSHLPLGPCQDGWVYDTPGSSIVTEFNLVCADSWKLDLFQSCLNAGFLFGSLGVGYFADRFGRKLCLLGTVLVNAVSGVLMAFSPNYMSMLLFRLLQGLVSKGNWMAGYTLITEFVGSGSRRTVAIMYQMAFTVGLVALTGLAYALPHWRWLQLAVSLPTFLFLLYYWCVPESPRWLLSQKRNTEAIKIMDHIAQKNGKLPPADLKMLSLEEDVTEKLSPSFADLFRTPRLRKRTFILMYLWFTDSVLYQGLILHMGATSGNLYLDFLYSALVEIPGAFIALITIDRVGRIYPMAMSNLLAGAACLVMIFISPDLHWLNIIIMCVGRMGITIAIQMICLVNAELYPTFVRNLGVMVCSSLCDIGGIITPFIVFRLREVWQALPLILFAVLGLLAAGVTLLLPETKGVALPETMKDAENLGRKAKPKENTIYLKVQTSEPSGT
As to the kind of experiment: Inhibition of model substrate uptake in OCT1-overexpressing HEK293 cells. It counts as cell-based. The arrangement: expressed in transfected cells; host or cells: HEK293. Conditions: for inhibition at 5 min, 20 μM / selectivity ratio at 5 min: OCT1-overexpressing HEK293 cells; for selectivity ratio at 5 min: pH 7.4, OCT1, read-out: x-fold Stereoselectivity. Here is the method:
Koepsell and Gorbulev (University of Würzburg, Germany).
Fluorescence quantification was performed in technical duplicates.

Data set [4] concerns the target T2, OCT3. Also on record: method as in earlier work. Conditions: ref 3 (Gebauer et al., 2022, supplement), cited from earlier work.
Setting [5] is: OCT2, 2 μM N-ethyllidocaine, 5 min.
Setting [6] is: OCT3, 20 μM inhibitor, 2 μM ASP+, 5 min.
[7] abbreviates: human, OCT2-overexpressing HEK293 cells, pH 7.4, probe (S,S)-ethambutol (2 μM), (S,S)-Ethambutol inhibition [%], OCT2, 2 μM (S,S)-ethambutol, 5 min.
The mark [8] stands for this setting: human, OCT2-overexpressing HEK293 cells, pH 7.4, probe ASP+ (2 μM), ASP+ inhibition [%], OCT2, 2 μM ASP+, 5 min.
The mark [9] stands for this setting: human, OCT2-overexpressing HEK293 cells, pH 7.4, probe N-ethyllidocaine (2 μM), N-Ethyllidocaine inhibition [%], OCT2, 2 μM N-ethyllidocaine, 5 min.
Setting [10] is: HEK293, 5 min, read-out: (S)-Zolmitriptan inhibition [%], OCT3, 20 μM inhibitor, 2 μM (S)-zolmitriptan, 5 min.
Where [11] appears, read: HEK293, 5 min, read-out: (S,S)-Ethambutol inhibition [%], OCT3, 20 μM inhibitor, 2 μM (S,S)-ethambutol, 5 min.
The mark [12] stands for this setting: HEK293, OCT3, 20 μM inhibitor, 2 μM ASP+, 5 min, read-out: ASP+ inhibition [%].
Where [13] appears, read: human, pH 7.4, probe (S,S)-ethambutol (2 μM), (S,S)-Ethambutol inhibition [%], OCT1, 20 μM inhibitor, 2 μM (S,S)-ethambutol, 5 min.
The mark [14] stands for this setting: human, pH 7.4, probe ASP+ (2 μM), OCT1, 20 μM inhibitor, 2 μM ASP+, 5 min, mean of three experiments, read-out: ASP+ inhibition [%].
[15] abbreviates: human, pH 7.4, probe sumatriptan (2 μM), OCT1, 20 μM inhibitor, 2 μM sumatriptan, 5 min, read-out: Sumatriptan inhibition [%].
Setting [16] is: human, ratio of the IC50 values of the two enantiomers of the drug.

On to `CC(C)C[C@H](N(C)C)C1(c2ccc(Cl)cc2)CCC1` [(S)-Sibutramine], for which the “ASP+ inhibition [%]” value in data set [1] (OCT2, 2 μM ASP+, 5 min) is 83.9%; in data set [2] (setting [6]) it was -0.8%; in data set [3] (OCT1, 20 μM inhibitor, 2 μM ASP+, 5 min, mean of three experiments) it was 38.0%. Moreover, the “N-Ethyllidocaine inhibition [%]” value in data set [1] (setting [5]) amounted to 44.0%. Further, the “(S)-Zolmitriptan inhibition [%]” value in data set [2] amounted to 24.1. Also, the “(S,S)-Ethambutol inhibition [%]” value in data set [2] worked out at 23.8. Moreover, the “Sumatriptan inhibition [%]” value in data set [3] (human, pH 7.4) was 72.0%.

On to `CC(C)(C)NC[C@H](O)COc1nsnc1N1CCOCC1` [(S)-Timolol], for which it took 60.2 µM to reach half-maximal inhibition in data set [1] (IC50, OCT2, Table S5, 2 μM ASP+ as model substrate, 5 min) (IC50). In addition, the inhibition at 5 min, 20 μM in data set [1] (setting [7]) worked out at 14.4%; in data set [1] (setting [8]) it was 50.1%; in data set [1] (setting [9]), 25.1%; in data set [3] (setting [13]), 25.6%; in data set [3] (setting [14]), 3.9%; in data set [3] (setting [15]), 42.1%. Also, the inhibition at 20 µM in data set [2] (setting [10]) amounted to 16.8%; in data set [2] (setting [11]) it was 11.1%; in data set [2] (setting [12]) it was 27.8%.

For the molecule `COc1ccc([C@@H](CN(C)C)C2(O)CCCCC2)cc1` [(S)-Venlafaxine], in data set [1] (OCT2, 2 μM ASP+, 5 min), the “ASP+ inhibition [%]” value was found to be 21.8%. The “N-Ethyllidocaine inhibition [%]” value in data set [1] (setting [5]) is on record as 13.4%. Also, the inhibition at 20 µM is 21% in data set [2] (HEK293, 5 min, read-out: (S)-Zolmitriptan inhibition [%]); 4.6% in data set [2] (HEK293, 5 min, read-out: (S,S)-Ethambutol inhibition [%]); -11.4% in data set [2] (setting [12]). Further, the “Sumatriptan inhibition [%]” value in data set [3] (human, pH 7.4) was 66.9%.

Regarding `CCCCN1CCCCC1C(=O)Nc1c(C)cccc1C` (stereo not shown) [Bupivacaine], the selectivity ratio at 5 min in data set [1] (human, OCT2-overexpressing HEK293 cells, pH 7.4) is 2.3; in data set [3] (setting [16]) it was 1.8. In addition, the “stereoselective inhibition of OCT3 (in words)” value in data set [2] (20 μM inhibitor) is “stereoselective inhibition”. In data set [3] (OCT1, ratio of the IC50 values of the two enantiomers of the drug), the “x-fold Stereoselectivity” value was 1.2 fold.

With `NC(N)=Nc1nc(CSCCC(N)=NS(N)(=O)=O)cs1` [Famotidine], in data set [4] (read-out: Km ± SEM), the Michaelis-Menten constant (Km) was 8.91 µM. Moreover, in data set [4], the “Clint ± SEM” value is listed as 27.2 and the “vmax ± SEM [pmol × mg Protein−1 × min−1]” value is 242 pmol × mg Protein−1 × min−1.

`CCN(CC)CC#CCOC(=O)C(O)(c1ccccc1)C1CCCCC1` (stereo not shown) [Oxybutynine]: the “x-fold Stereoselectivity” value in data set [1] (OCT2, ratio of the IC50 values of the two enantiomers of the drug) was determined as 1.6 fold; in data set [2] (OCT3, ratio of the IC50 values of the two enantiomers of the drug), 1.6 fold. Moreover, the “stereoselective inhibition of OCT3 (in words)” value in data set [2] (20 μM inhibitor) is recorded as “stereoselective inhibition”. Further, the selectivity ratio at 5 min in data set [3] (setting [16]) worked out at 1.2.

As for `C=C[C@H]1C[N@@]2CC[C@H]1C[C@@H]2[C@@H](O)c1ccnc2ccc(OC)cc12` [Quinidine], the inhibition at 5 min, 20 μM in data set [1] (setting [7]) is 13.3%; in data set [1] (setting [8]) it was 93.4%; in data set [1] (setting [9]), 50.8%; in data set [3] (setting [13]), 61.7%; in data set [3] (setting [14]), 13.1%; in data set [3] (setting [15]), 41.3%. For the same molecule, the inhibition at 20 µM turned out to be 67% in data set [2] (setting [10]), 85.9% in data set [2] (setting [11]) and 38.9% in data set [2] (setting [12]). Moreover, the IC50 in data set [2] (5 min) came to 249 µM.

On to `C=C[C@H]1C[N@@]2CC[C@H]1C[C@H]2[C@H](O)c1ccnc2ccc(OC)cc12` [Quinine], for which the inhibition at 5 min, 20 μM was 13.4% in data set [1] (setting [7]); 76.9% in data set [1] (setting [8]); 33.7% in data set [1] (setting [9]); 54.8% in data set [3] (setting [13]); 15.5% in data set [3] (setting [14]); 38.2% in data set [3] (setting [15]). For the same molecule, the figures for the inhibition at 20 µM in data set [2] (setting [10]), in data set [2] (setting [11]) and in data set [2] (setting [12]) were 32.1%, 46.2% and 10.3%, respectively. Further, in data set [2] (5 min), the IC50 was 78.9 µM.

Take (+)-Sparteine: the “ASP+ inhibition [%]” value in data set [1] (OCT2, 2 μM ASP+, 5 min) is listed as 112.4%; in data set [2] (setting [6]), 5.2%. Further, in data set [1] (setting [5]), the “N-Ethyllidocaine inhibition [%]” value amounted to 99.9%. The “(S)-Zolmitriptan inhibition [%]” value in data set [2] (OCT3, 20 μM inhibitor, 2 μM (S)-zolmitriptan, 5 min) is given as 28.7%. Also, the “(S,S)-Ethambutol inhibition [%]” value in data set [2] (OCT3, 20 μM inhibitor, 2 μM (S,S)-ethambutol, 5 min) is recorded as 32.7%; in data set [3] (OCT1, 20 μM inhibitor, 2 μM (S,S)-ethambutol, 5 min) it was 83.5%. In addition, the “Sumatriptan inhibition [%]” value in data set [3] (OCT1, 20 μM inhibitor, 2 μM sumatriptan, 5 min) came to 81.6%.
